Experimental data taken from article PMC7525492, “Microtiter plate-based antibody-competition assay to determine binding affinities and plasma/blood stability of CXCR4 ligands” (Scientific Reports, 2020).
Where “and” joins values, the source holds several entries; their conditions need not be identical. Identical values can stand only once. Counter-ions that a name gives are not always drawn. Like-named read-outs stand apart in the source and are kept apart here. Bridge positions count the residues as written; N and C are the ends. Square brackets hold non-standard residues; d marks the D form. Ends that are not written are not given here. Peptide text beside a SMILES is read from it. I, II: the chains in the order shown. 2Nal = N[C@@H](Cc1ccc2ccccc2c1)C(=O)O; Lys(iPr) = CC(C)NCCCC[C@H](N)C(=O)O

Key:
SupT1 cells [1] = assay: cells; settings: Homo sapiens, SUP-T1, 4 h, read-out: IC50 Migration
CXCR4-tropic HIV-1 [2] = assay: microbe, parasite or virus in culture; settings: Human immunodeficiency virus 1, TZM-bl, 72 h, read-out: IC50 HIV-1
[3] = Functional stability in human plasma read out by 12G5 competition; assay type: in vitro ADME; settings: for 12G5-competing activity after incubation in plasma / half-life at 20 µM / ability to block 12G5 binding after incubation in plasma / half-life t1/2 in plasma: 37 °C; for 12G5-competing activity after incubation in plasma: 24 h (AMD3100 also 48 h); for half-life at 20 µM: human, plasma, read-out: half-life t1/2 in plasma; for ability to block 12G5 binding after incubation in plasma: plasma of the individual donor, up to 24 h
Method: The t = 0 sample was immediately taken and stored at − 80 °C. Plasma/compound or blood/compound mixture was then transferred to 37 °C and shook at 350 rpm. At given time points samples were taken and stored at − 80 °C. For measuring the functional activity of the plasma/peptide samples, the mixtures were thawed and serially diluted in ice cold PBS (starting with 100% sample). 12G5-APC antibody competition was then performed as described before. Note, that during the competition process the samples are 1:1 diluted with the antibody and the highest plasma concentration on cells was 50%. For blood/peptide functional stability, samples were thawed and centrifuged at 14,000 rpm for 3 min at 4 °C to remove cells and debris. The supernatant was then serially diluted in PBS (starting with 100% sample) and 12G5-antibody competition assay was performed. […] Afterwards cells were washed again and analyzed for bound antibody.
(§1) Statistical analysis was performed in GraphPad Prism (version 8.3.0). IC50 and IC90 curves and the areas under the curves (AUC) were determined by nonlinear regression.

in vitro = in vitro ADME, human; settings: for half-life at 20 µM: 20 µM in whole EDTA blood of an individual donor, 37 °C, read-out: half-life t1/2 in blood
Method: Compounds were 150-fold diluted in human plasma or whole human blood to reach final concentrations of 20 µM. The t = 0 sample was immediately taken and stored at − 80 °C. Plasma/compound or blood/compound mixture was then transferred to 37 °C and shook at 350 rpm. At given time points samples were taken and stored at − 80 °C. For measuring the functional activity of the plasma/peptide samples, the mixtures were thawed and serially diluted in ice cold PBS (starting with 100% sample). 12G5-APC antibody competition was then performed as described before. Note, that during the competition process the samples are 1:1 diluted with the antibody and the highest plasma concentration on cells was 50%. For blood/peptide functional stability, samples were thawed and centrifuged at 14,000 rpm for 3 min at 4 °C to remove cells and debris. The supernatant was then serially diluted in PBS (starting with 100% sample) and 12G5-antibody competition assay was performed. After the 2 h incubation, the cells were washed by centrifugation (1.300 rpm, 4 °C) and 50 µL of 1-step-Fix/Lyse solution (Thermo Fisher #00-5333-54) was added for 15 min at room temperature. Afterwards cells were washed again and analyzed for bound antibody.
Statistical analysis was performed in GraphPad Prism (version 8.3.0). IC50 and IC90 curves and the areas under the curves (AUC) were determined by nonlinear regression. For half-life calculations, the IC50 values for each time point as well as the AUCs were analyzed and normalized relative to t = 0. Activities were then determined ((IC50 (t = 0) / IC50 (t)) × 100) for each time point and half-lives determined by a One-Phase-Decay model.

[4] = administered AMD3100; cited from earlier work
CXCR4-tropic HIV-1 [5] = settings: TZM-bl cells; for IC50: read-out: IC50 HIV-1
SupT1 cells [6] = settings: read-out: IC50 Migration
CXCR4 = CXCR4 (Homo sapiens, UniProt P61073); assay: 12G5 antibody competition assay on SupT1 cells; assay type: binding; settings: for IC50: APC-labelled 12G5, 2 h at 4 °C, mean ± SEM of 3 assays; for Ki: calculated from IC50 12G5 by Cheng-Prusoff, Kd of 12G5 151.5 pM
Method: Compounds were serially diluted in ice cold PBS and 12G5-APC antibody was diluted in cold PBS containing 1% FCS. […] Plates were incubated at 4 °C in the dark for 2 h. Afterwards cells were washed twice by centrifugation with PBS containing 1% FCS and fixed with 2% paraformaldehyde (PFA). During all pipetting steps, plates were kept cool by using a cooling pad. Antibody binding was analyzed by flow cytometry (FACS CytoFLEX; Beckman Coulter) by determination of the mean fluorescence intensity (MFI) of at least 5.000 cells (50.000 cells per well) or 1.000 cells (5.000 cells per well).
Ki calculation3 Ki=IC50/1+L/Kd
For Ki = inhibitory constant; IC50 = half maximal inhibition for 12G5 binding; [L] = 12G5 concentration; Kd = dissociation constant of 12G5.
as §1

[7] = biological target: C-X-C chemokine receptor type 4 (CXCR4) (human (endogenous in SupT1)) (UniProt P61073)
CXCR7 = settings: cited from earlier work
CXCL12 migration = settings: cited from earlier work
[8] = EPI-X4 sandwich ELISA; cited from earlier work
[9] = biological target: T1, C-X-C chemokine receptor type 4 (CXCR4) (human (endogenous in SupT1), UniProt P61073 1-352); assay: cell-based or functional assay
[10] = biological target: T1, C-X-C chemokine receptor type 4 (CXCR4); assay: flow cytometry on cells; competition with APC-labelled anti-CXCR4 antibody 12G5 (0.245 nM final) on SupT1 cells (5000 cells per well for Ki, or 50,000); compounds in PBS, antibody in PBS with 1% FCS; 2 h at 4 °C in the dark; Ki calculated from IC50 by the Cheng-Prusoff transformation with the Kd of 12G5 (151.5 pM); settings: one partner purified
[11] = biological target: T2, C-X-C chemokine receptor type 4 (CXCR4) (human (endogenous in SupT1)), P61073
T2 chain: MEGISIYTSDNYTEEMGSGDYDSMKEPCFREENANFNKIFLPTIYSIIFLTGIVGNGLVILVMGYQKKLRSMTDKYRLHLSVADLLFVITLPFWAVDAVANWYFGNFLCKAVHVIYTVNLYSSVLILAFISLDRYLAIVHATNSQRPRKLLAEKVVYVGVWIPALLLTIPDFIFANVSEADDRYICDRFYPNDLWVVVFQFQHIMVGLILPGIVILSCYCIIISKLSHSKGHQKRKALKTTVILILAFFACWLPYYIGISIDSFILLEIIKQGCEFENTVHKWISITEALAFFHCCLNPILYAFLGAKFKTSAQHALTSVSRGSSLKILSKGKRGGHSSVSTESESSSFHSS

[12] = biological target: T2, C-X-C chemokine receptor type 4 (CXCR4) …; assay: flow cytometry on cells; competition with APC-labelled anti-CXCR4 antibody 12G5 (0.245 nM final) on SupT1 cells (5000 cells per well for Ki, or 50,000); compounds in PBS, antibody in PBS with 1% FCS; 2 h at 4 °C in the dark; Ki calculated from IC50 by the Cheng-Prusoff transformation with the Kd of 12G5 (151.5 pM)
[13] = 20 µM in plasma of an individual donor
[14] = 20 µM in pooled human plasma, Fig. 4a
[15] = 20 µM in pooled human plasma (6 donors), from IC50 relative to t = 0, one-phase decay
[16] = infection rate after 3 days, mean ± SEM of 3 assays

For `NCCCCN(Cc1nc2ccccc2[nH]1)[C@H]1CCCc2cccnc21` [AMD070], the IC50 (SupT1 cells [1]) was 152 ± 3 nM and the IC50 (CXCR4-tropic HIV-1 [2]) was 23 ± 4 nM.

For `c1cc(CN2CCCNCCNCCCNCC2)ccc1CN1CCCNCCNCCCNCC1` [AMD3100, AMD3100 octahydrochloride hydrate], the “12G5-competing activity after incubation in plasma” value ([3]; 20 µM in pooled human plasma) was “remained fully active”, the half-life at 20 µM [3, 13] was greater than 24 h and the half-life at 20 µM [3, 14] was greater than 48 h. For the same molecule, the half-life at 20 µM ([3]; 20 µM in pooled human plasma, Fig. S5a, no unit at the value, time axis in min, estimated by eye) was greater than 24 h, the “ability to block 12G5 binding after incubation in plasma” value [3] was “remained fully active” and the “ability to block 12G5 binding after incubation in whole blood” value (in vitro) was “remained fully active”. The half-life at 20 µM (in vitro; human) was greater than 24 h, the IC50 (SupT1 cells [1]) was 60 ± 13 nM and the “fraction bound to plasma proteins” value [4] was 58%. For the same molecule, the IC50 (CXCR4-tropic HIV-1 [2]) was 36 ± 6 nM.

`CC[C@H](C)[C@H](N)C(=O)N[C@H](C(=O)N[C@@H](CCCNC(=N)N)C(=O)N[C@@H](Cc1c[nH]c2ccccc12)C(=O)N[C@@H](CO)C(=O)N[C@@H](CCCCN)C(=O)N[C@@H](CCCCN)C(=O)N[C@H](C(=O)N1CCC[C@H]1C(=O)N[C@@H](CSSC[C@H](NC(=O)[C@@H]1CCCN1C(=O)[C@@H](NC(=O)[C@H](CCCCN)NC(=O)[C@H](CCCCN)NC(=O)[C@H](CO)NC(=O)[C@H](Cc1c[nH]c2ccccc12)NC(=O)[C@H](CCCNC(=N)N)NC(=O)[C@@H](NC(=O)[C@@H](N)[C@@H](C)CC)C(C)C)C(C)C)C(=O)N[C@H](C(=O)N[C@@H](CO)C(=O)O)C(C)C)C(=O)N[C@H](C(=O)N[C@@H](CO)C(=O)O)C(C)C)C(C)C)C(C)C` [EPI-X4 WSC02x2] (I: H-IVRWSKKVPCVS-OH / II: H-IVRWSKKVPCVS-OH; disulfide I:10-II:10; N-terminus and C-terminus assumed) showed a half-life at 20 µM [3, 13] of roughly 3 h, a half-life at 20 µM [3, 15] of 3.22 h and a half-life at 20 µM ([3]; human plasma, value in discussion) greater than 3 h. The “fold more stable than WSC02 in plasma” value ([3]; pooled human plasma, ratio of t1/2) was 19 fold, the half-life at 20 µM (in vitro; human) was 1.33 h and the “stability in blood compared to plasma” value (in vitro; human, plasma) was “less stable in blood compared to plasma”.

For `CC1(C)CN2C(CSC(=NC3CCCCC3)NC3CCCCC3)=CSC2=N1` [IT1t], the “half-life t1/2 in plasma” value [3, 13] was “ca. 480 min”, the “12G5-competing activity after incubation in plasma” value ([3]; 20 µM in pooled human plasma) was “remained fully active” and the “half-life t1/2 in plasma” value [3, 14] was less than 24 h. For the same molecule, the “ability to block 12G5 binding after incubation in plasma” value [3] was “moderately impaired”, the “ability to block 12G5 binding after incubation in whole blood” value (in vitro) was “moderately impaired” and the IC50 (CXCR4-tropic HIV-1 [5]; [16]) was 5 ± 0.9 nM. It also gave an IC50 (SupT1 cells [6]) of 230 ± 20 nM.

Work on `CC(C)NCCCC[C@H](NC(=O)[C@H]1CCC(=O)N[C@@H](Cc2ccccc2)C(=O)N[C@@H](Cc2ccc(O)cc2)C(=O)N[C@@H](CCCCNC(C)C)C(=O)N[C@H](CCCNC(=N)N)C(=O)N[C@@H](Cc2ccc3ccccc3c2)C(=O)NCC(=O)N1)C(N)=O` [LY2510924] (FY[Lys(iPr)][dR][2Nal]G[dE][Lys(iPr)]-NH2; lactam N-7) yielded an IC50 (CXCR4; SupT1 cells) of 151 ± 78 nM, a Ki (CXCR4) of 58 ± 30 nM and an IC50 (CXCR4-tropic HIV-1 [5]; [16]) of 8 ± 0.8 nM. The IC50 (SupT1 cells [6]; 100 ng/mL CXCL12, 4 h, mean ± SEM of 3 assays) was 66 ± 8 nM.

For `c1cnc(NCc2ccc(CNc3ncccn3)cc2)nc1` [MSX-122], the “effect on 12G5 binding” value (CXCR4; SupT1 cells) was “did not interfere with 12G5 binding”, the IC50 (CXCR4; SupT1 cells) was greater than 100000 nM and the “effect on CXCR4-tropic HIV-1 infection” value (CXCR4-tropic HIV-1 [5]) was “not affecting”. It also gave an IC50 (CXCR4-tropic HIV-1 [2]) greater than 10000 nM.

Work on “EPI-X4 (Endogenous Peptide Inhibitor of CXCR4)” yielded an IC50 of inhibition of infection of TZM-bl reporter cells by CXCR4-tropic HIV-1 (NL4-3), β-galactosidase assay [7] of 31400 nM.

LVRYTKKVPQVSTPTL [EPI-X4] showed an IC50 (CXCR4; SupT1 cells) of 1780 ± 162 nM, a Ki (CXCR4) of 677 ± 62 nM and a half-life at 20 µM [3, 15] of 0.383 h. The IC50 (CXCR4-tropic HIV-1 [5]) was 31000 nM, the IC50 (CXCR4-tropic HIV-1 [5]; [16]) was 31400 nM and the CXCR7 binding (CXCR7) was “does not bind CXCR7”. For the same molecule, the “IC50 to suppress CXCL12 migration” value (CXCL12 migration) was “median micromolar range” and the half-life in plasma [8] was 17 min and ~ 17 min.

B1: EPI-X4 WSC02x2 (peptide)
chain: IVRWSKKVPCVS
modifications: also: homodimer via intermolecular disulfide, disulfide at 10, other end not in the chain
In the case of B1, the “IC50 of inhibition of SupT1 cell migration towards CXCL12 (100 ng/mL, transwell); the pair antagonized is CXCL12 with CXCR4” value [9] is reported as 2670 nM, the “IC50 of inhibition of infection of TZM-bl reporter cells by CXCR4-tropic HIV-1 (NL4-3), β-galactosidase assay” value [9] is reported as 254 nM and the IC50 [10] is reported as 182 nM. It also gave a Ki [10] of 69 ± 12 nM.

With IVRWSKKVPCVS (modifications not checked) [EPI-X4 WSC02] the IC50 of inhibition of SupT1 cell migration towards CXCL12 (100 ng/mL, transwell); the pair antagonized is CXCL12 with CXCR4 [11] was 15800 nM, the IC50 of inhibition of infection of TZM-bl reporter cells by CXCR4-tropic HIV-1 (NL4-3), β-galactosidase assay [11] was 257 nM and the IC50 [12] was 290 nM. The Ki [12] was 111 nM.
